# Tested on: c-myc P2 promoter
# Test: PCR-Stop assay with real time PCR on genomic DNA of drug-treated RKO colon cancer cells
# Format: cell-based, human
# Details: 10 ng/ml TSA 4 h followed by 25 μM VP16 1 h, compared to the reverse combination and the single drug treatments
# Text: Top2 inhibitors induce preferential damage within the c-myc locus and more particularly within the P2 promoter of c-myc. […] By way of non-limiting example, the 3′ end region may be amplified using the following primers of the human c-myc gene: Forward: 5′[…]3′ [SEQ ID NO: 1], Reverse: 5′[…]3′ [SEQ ID NO:2]. Other suitable primers may be used, as would be apparent to those skilled in the art.
# According to example embodiments, a comparative threshold (Ct) method may be used to quantify the results obtained by the real-time RT-PCR. The comparative Ct method involves comparing the Ct values of the samples of interest with a control or calibrator such as a non-treated sample from normal tissue. The Ct values of both the calibrator and the samples of interest are normalized to an appropriate endogenous housekeeping gene. Non-limiting example quantification methods include identifying the cycle number at which the reporter dye emission intensities rises above background noise: this cycle number is called the threshold number (Ct). The Ct is proportional to the breaks introduced in the target template; the higher the amount of breakage in the given target template, the higher the Ct measured.
# By way of non-limiting example, the 3′ region of c-myc gene that has no type II topoisomerase cleavage site may be used as a reference. […]
compound,measurement,value
"COc1cc([C@@H]2c3cc4c(cc3[C@@H](O[C@@H]3O[C@@H]5CO[C@@H](C)O[C@H]5[C@H](O)[C@H]3O)[C@H]3COC(=O)[C@H]23)OCO4)cc(OC)c1O [VP16, etoposide]",percentage of breaks at c-myc locus (type II topoisomerase mediated DNA breaks in c-myc P2 promoter),considerably higher percentage of breaks

# — patent publication US8367340B2, “Prognostic tools to predict the efficacy of drug treatment targeting chromatin DNA or enzymes acting on DNA” (University of Maryland, Baltimore, priority 2008, dated 2013)
